From US20150079174A1, “ANTIMICROBIAL COMPLEXES” (Matera, LDA, priority 2012, published 2015)
Read-outs that look alike come from different tables or passages of the source. Blank lines part the entries; values can stand above or below the compound they belong to.

Legend:
[1] = Critical micelle concentration (CMC) with fluorescent probe N-phenyl-1-naphthylamine; assay type: physicochemical; settings: surfactant in PBS pH 7.4
Method: Critical Micelle Concentration (CMC) was determined for a range of surfactants, following the method described by Brito et al. ‘Determination of the critical micelle concentration of surfactants using the fluorescent probe N-phenyl-1-naphthylamine.’ Anal. Biochem 1986 (152) 250-255.
Briefly, the surfactants were dissolved in PBS (pH 7.4), serially diluted and mixed with N-phenyl-1-naphthylamine (NPN; TCI). The fluorescence of each sample was quantified (excitation at 350 nm; emission at 420 nm) and plotted against the concentration of each surfactant. The CMC was found at the intersection of two straight lines traced on the emission intensity plot, defining the aqueous and micellar environments.
The evolution of SWCNTs resuspension was performed by optical density measurement (at 600 nm) on a microplate reader. N-phenyl-1-naphthylamine (NPN) (Sigma-Aldrich) was used to determine the DDAB critical micelle concentration (CMC) and the presence of micelles on the SWCNT suspension. A solution of NPN of 2×10^−1 M in ethanol was prepared and further diluted in PBS to the working concentration of 2×10^−4 M. DDAB or SWCNT-DDAB suspensions were mixed in equal volumes on a opaque 96-well plate and the fluorescence measured with the assistance of a SpectraMax Fluoremeter using an excitation and emission wavelength of 320 and 450 nm, respectively.

[2] = test system: Staphylococcus aureus ATCC 6538; experiment: Minimal inhibitory concentration (growth kinetics at 600 nm / broth microdilution); settings: for MIC: Staphylococcus aureus, ATCC6538, 18 h
[3] = test system: Candida albicans ATCC 10231; experiment: as above; settings: for MIC: Candida albicans, ATCC10231, 18 h
[4] = test system: Escherichia coli ATCC 25922; experiment: as above; settings: for MIC: Escherichia coli, ATCC25922, 18 h
[5] = read-out: MIC S. aureus, soluble surfactant, 15.6 to 500 μg/ml, 18 h at 37° C.
[6] = soluble surfactant, 15.6 to 500 μg/ml, 18 h at 37° C.

CMC [1]: 32.4 µg/mL | MIC [2, 5]: 31.2 µg/mL | MIC S. aureus [2, 6]: 31.3 µg/mL | MIC ([3]; read-out: MIC C. albicans, soluble surfactant, 62.5 to 500 μg/ml, 18 h at 30° C.): 125 µg/mL | MIC C. albicans ([3]; soluble surfactant, 62.5 to 500 μg/ml, 18 h at 30° C.): 250 µg/mL | MIC ([4]; read-out: MIC E. coli): 125 µg/mL
SMILES: CCCCCCCCCCCC[N+](C)(C)CCCCCCCCCCCC.[Br-] [DDAB, didodecyldimethylammonium bromide]

CMC [1]: 246.2 µg/mL | MIC [2, 5]: 125 µg/mL
SMILES: CCCCCCCCCCCC[N+](C)(CCCCCCCCCCCC)CCCCCCCCCCCC.[Cl-] [TMAC, tridodecylmethylammonium chloride]

CMC [1]: 5.2 µg/mL
SMILES: CCCCCCCCCCCCCCCC[N+](C)(C)CCCCCCCCCCCCCCCC.[Br-] [DHDAB, dihexadecyldimethylammonium bromide]

CMC [1]: 7.8 µg/mL
SMILES: CCCCCCCCCCCCCC[N+](C)(C)CCCCCCCCCCCCCC.[Br-] [DTDAB, ditetradecyldimethylammonium bromide]

SMILES: CCCCCCCCCCCC[N+](C)(C)C.[Br-] [DTAB, dodecyltrimethylammonium bromide]
CMC [1]: 3515.1 µg/mL | MIC ([2]; read-out: MIC S. aureus): 31.2 µg/mL | MIC ([3]; read-out: MIC C. albicans): 250 µg/mL | MIC ([4]; read-out: MIC E. coli, soluble surfactant, 15.6 to 500 μg/ml, 18 h at 37° C.): 125 µg/mL | MIC E. coli [4, 6]: 62.5 µg/mL
